Reference: patent US20220193076A1, “METHODS OF TREATING BREAST CANCER WITH TUCATINIB” (Seagen Inc., priority 2019, published 2022)

Legend:
OAT2 = target: T1, OAT2 (Homo sapiens, UniProt Q9Y694); test: Inhibition of OAT2 mediated transport of creatinine in transfected MDCK-II cells (Example 3); assay type: in vitro ADME; settings: at concentration of 10 μM
T1 construct: expressed in transfected cells; host or cells: MDCK-II
T1 sequence (Q9Y694 1-548): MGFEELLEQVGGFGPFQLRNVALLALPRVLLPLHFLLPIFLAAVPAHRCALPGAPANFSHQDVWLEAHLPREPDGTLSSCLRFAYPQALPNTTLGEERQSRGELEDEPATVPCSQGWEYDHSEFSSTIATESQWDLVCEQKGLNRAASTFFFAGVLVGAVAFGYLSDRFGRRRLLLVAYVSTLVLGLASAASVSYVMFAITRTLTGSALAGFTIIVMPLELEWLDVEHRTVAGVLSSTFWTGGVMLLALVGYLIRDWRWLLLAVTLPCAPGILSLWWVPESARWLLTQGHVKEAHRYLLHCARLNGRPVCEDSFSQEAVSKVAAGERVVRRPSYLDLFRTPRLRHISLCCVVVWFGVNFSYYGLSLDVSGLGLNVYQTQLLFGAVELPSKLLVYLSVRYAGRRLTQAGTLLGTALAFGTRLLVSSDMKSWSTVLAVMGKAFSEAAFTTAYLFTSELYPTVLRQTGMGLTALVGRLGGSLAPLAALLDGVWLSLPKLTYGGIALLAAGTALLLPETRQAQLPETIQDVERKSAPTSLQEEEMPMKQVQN
Protocol: (§1) Substrate dependent inhibition is common among transporters including MATE1 and MATE2-K. In this study, creatinine was used as the probe substrate to assess the inhibitory potency of Tucatinib and ONT-993. OAT2, OCT2, OCT3, MATE1, and MATE2-K are the renal transporters identified to transport creatinine. Tucatinib and its metabolite ONT-993 were tested as potential inhibitors of OAT2, OCT2, MATE1, and MATE2-K mediated transport using creatinine as a probe substrate.
(§2) For this study, MDCK-II were maintained in DMEM with low glucose and 10% FBS. Cells were seeded at 60K±10K cells/well on 96-well, transwell membrane plates approximately 24 hours before transfection. Transport assays were carried out approximately 48 hours after transfection. Cells were transfected and treated to express the transporter of interest or treated with a control vector. The transport of creatinine was determined by radiometric detection.
(§3) Net transporter mediated uptake of the substrate by each transporter was calculated as follows: Net Transporter Mediated Substrate Uptake (pmol/min/cm^2)=(Cellular accumulation in the presence of the transporter)−(Mean cellular accumulation in the absence of the transporter.
(§4) Percent inhibition was calculated as follows: Percent inhibition=100−(100*(transporter mediated uptake)with inhibition/(transporter mediated uptake)without inhibition) […]

OCT2 = target: T2, OCT2 (Homo sapiens, UniProt O15244); test: Inhibition of OCT2 mediated transport of creatinine in transfected MDCK-II cells (Example 3); assay type: in vitro ADME; settings: probe substrate creatinine, 0.03 to 10 μM
T2 construct: expressed in transfected cells; host or cells: MDCK-II
T2 sequence (O15244 1-555): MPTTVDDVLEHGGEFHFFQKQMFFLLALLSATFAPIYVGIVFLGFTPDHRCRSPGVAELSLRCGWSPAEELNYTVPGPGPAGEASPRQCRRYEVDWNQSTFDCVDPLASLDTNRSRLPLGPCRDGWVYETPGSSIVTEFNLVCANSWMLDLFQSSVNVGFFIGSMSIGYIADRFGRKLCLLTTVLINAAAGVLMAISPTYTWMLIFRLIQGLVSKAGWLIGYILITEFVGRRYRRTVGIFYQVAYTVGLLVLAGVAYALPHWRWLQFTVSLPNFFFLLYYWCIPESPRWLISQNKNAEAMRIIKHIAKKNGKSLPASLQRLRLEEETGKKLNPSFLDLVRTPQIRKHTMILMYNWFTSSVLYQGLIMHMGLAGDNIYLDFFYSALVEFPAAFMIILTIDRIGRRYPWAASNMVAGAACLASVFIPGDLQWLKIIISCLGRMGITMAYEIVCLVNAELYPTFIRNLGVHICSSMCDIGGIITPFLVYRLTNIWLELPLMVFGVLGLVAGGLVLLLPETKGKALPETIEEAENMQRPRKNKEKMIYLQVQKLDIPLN
Protocol: as §1, §2, §3, §4

[1] = Example 2 Part E: single- and multiple-dose PK of tucatinib and ONT-993; assay type: in vivo, human; settings: tucatinib 300 mg BID, Day 14 vs Day 8
MATE1 = target: T3, MATE1 (Homo sapiens, UniProt Q96FL8); test: Inhibition of MATE1 mediated transport of creatinine in transfected MDCK-II cells (Example 3); assay type: in vitro ADME; design: expressed in transfected cells; host or cells: MDCK-II; settings: probe substrate creatinine
T3 sequence (Q96FL8 1-570): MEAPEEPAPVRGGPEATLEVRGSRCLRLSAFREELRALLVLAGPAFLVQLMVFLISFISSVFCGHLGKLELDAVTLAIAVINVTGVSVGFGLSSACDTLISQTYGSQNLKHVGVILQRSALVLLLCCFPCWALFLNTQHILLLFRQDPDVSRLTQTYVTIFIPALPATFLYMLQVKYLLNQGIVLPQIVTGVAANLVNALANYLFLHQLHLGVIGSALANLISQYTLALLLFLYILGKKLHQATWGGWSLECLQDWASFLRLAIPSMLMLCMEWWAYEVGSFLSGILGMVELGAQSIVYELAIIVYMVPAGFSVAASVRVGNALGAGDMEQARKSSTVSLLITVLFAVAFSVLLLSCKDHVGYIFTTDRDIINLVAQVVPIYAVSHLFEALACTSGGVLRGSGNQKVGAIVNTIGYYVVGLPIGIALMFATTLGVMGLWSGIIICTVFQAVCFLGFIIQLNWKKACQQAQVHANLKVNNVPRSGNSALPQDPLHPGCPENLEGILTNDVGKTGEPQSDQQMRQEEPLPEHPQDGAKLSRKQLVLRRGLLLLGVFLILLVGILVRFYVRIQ
Protocol: OAT2, OCT2, OCT3, MATE1, and MATE2-K are the renal transporters identified to transport creatinine.
as §2, §3
Percent inhibition was calculated as follows: Percent inhibition=100−(100*(transporter mediated uptake)with inhibition/(transporter mediated uptake)without inhibition)
The following equation was used to determine IC50 values of uptake assays: […]

In the case of `Cc1cc(Nc2ncnc3ccc(NC4=NC(C)(CO)CO4)cc23)ccc1Oc1ccn2ncnc2c1` (stereo not shown) [ONT-993], the “Maximum inhibition of OAT2 mediated transport of creatinine” value (OAT2) is reported as 44.9%, the IC50 (OCT2) is reported as 544 ± 278 nM and the “Rac (accumulation ratio) after multiple dosing” value [1] is reported as 2.01. For the same molecule, the IC50 (MATE1) was 86.3 ± 12.6 nM.
